Target: T1, HIF-PH2 (Homo sapiens, UniProt Q9GZT9)
T1 construct: made in house; host or cells: insect Hi5 cells
Test: HIF-PH assay (14CO2 capture, peptide-dependent turnover)
Format: biochemical
Details: compound concentration 22.22 μM
Source text: Ketoglutaric acid α-[1-^14C]-sodium salt, alpha-ketoglutaric acid sodium salt, and HPLC purified peptide may be obtained from commercial sources, e.g., Perkin-Elmer (Wellesley Mass.), Sigma-Aldrich, and SynPep Corp. (Dublin Calif.), respectively. Peptides for use in the assay may be fragments of HIFα as described above or as disclosed in International Publication WO 2005/118836, incorporated by reference herein. For example, a HIF peptide for use in the HIF-PH assay is [methoxycoumarin]-DLDLEALAPYIPADDDFQL-amide. HIF-PH, e.g., HIF-PH2 (EGLN1), can be expressed in, e.g., insect Hi5 cells, and partially purified, e.g., through a SP ion exchange chromatography column. Enzyme activity is determined by capturing ^14CO2 using an assay described by Kivirikko and Myllyla (1982, Methods Enzymol. 82:245-304). Assay reactions contain 50 mM HEPES (pH 7.4), 100 μM α-ketoglutaric acid sodium salt, 0.30 μCi/mL ketoglutaric acid α-[1-^14C]-sodium salt, 40 μM FeSO4, 1 mM ascorbate, 1541.8 units/mL Catalase, with or without 50 μM peptide substrate and various concentrations of compound of the invention. Reactions are initiated by addition of HIF-PH enzyme.
The peptide-dependent percent turnover is calculated by subtracting percent turnover in the absence of peptide from percent turnover in the presence of substrate peptide. Percent inhibition and IC50 are calculated using peptide-dependent percent turnover at given inhibitor concentrations. Calculation of IC50 values for each inhibitor is conducted using GraFit software (Erithacus Software Ltd., Surrey UK).
Representative compounds of the invention were analyzed using the HIF-PH assay described above. Table I below presents enzyme inhibition data for exemplary compounds against HIF-PH2, a representative HIF prolyl hydroxylase enzyme. By inhibiting HIF prolyl hydroxylase enzymes, compounds of the invention stabilize HIFα, which then combines with HIFβ to form an active transcription factor that increases expression of various genes involved in numerous beneficial cellular processes.

T1 sequence (Q9GZT9 whole entry, species assumed): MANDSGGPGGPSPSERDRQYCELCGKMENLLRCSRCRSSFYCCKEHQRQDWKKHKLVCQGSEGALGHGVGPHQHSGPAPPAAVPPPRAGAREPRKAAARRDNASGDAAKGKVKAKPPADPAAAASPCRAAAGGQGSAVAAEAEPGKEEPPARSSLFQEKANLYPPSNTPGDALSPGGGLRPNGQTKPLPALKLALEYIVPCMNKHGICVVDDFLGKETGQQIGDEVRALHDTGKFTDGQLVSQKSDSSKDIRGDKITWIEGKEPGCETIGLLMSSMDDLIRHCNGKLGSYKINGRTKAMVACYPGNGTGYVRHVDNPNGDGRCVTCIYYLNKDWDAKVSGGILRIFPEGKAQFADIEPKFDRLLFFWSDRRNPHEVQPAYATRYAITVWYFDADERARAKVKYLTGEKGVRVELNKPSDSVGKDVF

| Compound | inhibition at 22.22 µM [%] |
| --- | --- |
| N#Cc1ccc(-c2nc(C(=O)NCC(=O)O)c(O)c3c(-c4ccc(F)cc4)nsc23)cc1 [Example 11, {[7-(4-Cyano-phenyl)-3-(4-fluoro-phenyl)-4-hydroxy-isothiazolo[5,4-c]pyridine-5-carbonyl]-amino}-acetic acid] | 91.5 |
| Cc1nc(C(=O)NCC(=O)O)c(O)c2c(-c3ccccc3)nsc12 [Example 44, [(4-Hydroxy-7-methyl-3-phenyl-isothiazolo[5,4-c]pyridine-5-carbonyl)-amino]-acetic acid] | 91 |
| O=C(O)CNC(=O)c1nc(-c2cn(Cc3ccccc3)nn2)c2snc(-c3ccc(Cl)cc3)c2c1O [Example 23, {[7-(1-Benzyl-1H-[1,2,3]triazol-4-yl)-3-(4-chloro-phenyl)-4-hydroxy-isothiazolo[5,4-c]pyridine-5-carbonyl]-amino}-acetic acid] | 100 |
| O=C(O)CNC(=O)c1nc(Cc2ccccc2)c2snc(-c3ccc(Cl)cc3)c2c1O [Example 22, {[7-Benzyl-3-(4-chloro-phenyl)-4-hydroxy-isothiazolo[5,4-c]pyridine-5-carbonyl]-amino}-acetic acid] | 97 |
| O=C(O)CNC(=O)c1nc(-c2ccccc2)c2c(Cn3ccc4ccccc43)nsc2c1O [Example 42, [(7-Hydroxy-3-indol-1-ylmethyl-4-phenyl-isothiazolo[4,5-c]pyridine-6-carbonyl)-amino]-acetic acid] | 100 |
| O=C(O)CNC(=O)c1nc(-c2ccccc2)c2snc(-c3ccccc3)c2c1O [Example 45, [(4-Hydroxy-3,7-diphenyl-isothiazolo[5,4-c]pyridine-5-carbonyl)-amino]-acetic acid] | 97 |

Same assay, conditions: compound concentration 200 μM

| Compound | inhibition at 200 µM [%] |
| --- | --- |
| Cc1nc(C(=O)NCC(=O)O)c(O)c2c(-c3ccccc3F)nsc12 [Example 36, {[3-(2-Fluoro-phenyl)-4-hydroxy-7-methyl-isothiazolo[5,4-c]pyridine-5-carbonyl]-amino}-acetic acid] | 100 |
| Cc1nsc2c(-c3cccnc3)nc(C(=O)NCC(=O)O)c(O)c12 [Example 37, [(4-Hydroxy-3-methyl-7-pyridin-3-yl-isothiazolo[5,4-c]pyridine-5-carbonyl)-amino]-acetic acid] | 100 |
| CCc1nc(C(=O)NCC(=O)O)c(O)c2snc(C)c12 [Example 47, [(4-Ethyl-7-hydroxy-3-methyl-isothiazolo[4,5-c]pyridine-6-carbonyl)-amino]-acetic acid] | 99 |
| O=C(O)CNC(=O)c1nc(-c2ccccc2)c2snc(-c3ccc(F)cc3)c2c1O [Example 10, {[3-(4-Fluoro-phenyl)-4-hydroxy-7-phenyl-isothiazolo[5,4-c]pyridine-5-carbonyl]-amino}-acetic acid] | 98.2 |
| Cc1nsc2c(O)c(C(=O)NCC(=O)O)nc(C)c12 [Example 29, [(7-Hydroxy-3,4-dimethyl-isothiazolo[4,5-c]pyridine-6-carbonyl)-amino]-acetic acid] | 100 |
| O=C(O)CNC(=O)c1nc(-c2ccccc2)c2snc(-c3ccccc3F)c2c1O [Example 34, {[3-(2-Fluoro-phenyl)-4-hydroxy-7-phenyl-isothiazolo[5,4-c]pyridine-5-carbonyl]-amino}-acetic acid] | 100 |
| O=C(O)CNC(=O)c1ncc2snc(-c3ccc(F)cc3)c2c1O [Example 12, {[3-(4-Fluoro-phenyl)-4-hydroxy-isothiazolo[5,4-c]pyridine-5-carbonyl]-amino}-acetic acid] | 98.9 |
| COc1cccc(-c2nc(C(=O)NCC(=O)O)c(O)c3c(-c4ccc(Cl)cc4)nsc23)c1 [Example 20, {[3-(4-Chloro-phenyl)-4-hydroxy-7-(3-methoxy-phenyl)-isothiazolo[5,4-c]pyridine-5-carbonyl]-amino}-acetic acid] | 88.9 |
| Cc1nsc2c(-c3ccccc3)nc(C(=O)NCC(=O)O)c(O)c12 [Example 30, [(4-Hydroxy-3-methyl-7-phenyl-isothiazolo[5,4-c]pyridine-5-carbonyl)-amino]-acetic acid] | 100 |
| O=C(O)CNC(=O)c1nc(-c2cccnc2)c2snc(-c3ccccc3)c2c1O [Example 3, [(4-Hydroxy-3-phenyl-7-pyridin-3-yl-isothiazolo[5,4-c]pyridine-5-carbonyl)-amino]-acetic acid] | 100 |
| Cc1nc(C(=O)NCC(=O)O)c(O)c2c(-c3ccc(F)cc3)nsc12 [Example 9, {[3-(4-Fluoro-phenyl)-4-hydroxy-7-methyl-isothiazolo[5,4-c]pyridine-5-carbonyl]-amino}-acetic acid] | 97.4 |
| C[C@H](NC(=O)c1ncc2snc(-c3ccc(Cl)cc3)c2c1O)C(=O)O [Example 19, (S)-2-{[3-(4-Chloro-phenyl)-4-hydroxy-isothiazolo[5,4-c]pyridine-5-carbonyl]-amino}-propionic acid] | 100 |
| COc1ccc(-c2nc(C(=O)NCC(=O)O)c(O)c3c(-c4ccc(Cl)cc4)nsc23)cn1 [Example 21, {[3-(4-Chloro-phenyl)-4-hydroxy-7-(6-methoxy-pyridin-3-yl)-isothiazolo[5,4-c]pyridine-5-carbonyl]-amino}-acetic acid] | 77 |
| C#Cc1nc(C(=O)NCC(=O)O)c(O)c2c(-c3ccc(Cl)cc3)nsc12 [Example 14, {[3-(4-Chloro-phenyl)-7-ethynyl-4-hydroxy-isothiazolo[5,4-c]pyridine-5-carbonyl]-amino}-acetic acid] | 100 |
| O=C(O)CNC(=O)c1nc(Br)c2snc(-c3ccc(F)cc3)c2c1O [Example 7, {[7-Bromo-3-(4-fluoro-phenyl)-4-hydroxy-isothiazolo[5,4-c]pyridine-5-carbonyl]-amino}-acetic acid] | 100 |
| O=C(O)CNC(=O)c1nc(-c2ccc(Oc3ccccc3)cc2)c2snc(-c3ccccc3F)c2c1O [Example 35, {[3-(2-Fluoro-phenyl)-4-hydroxy-7-(4-phenoxy-phenyl)-isothiazolo[5,4-c]pyridine-5-carbonyl]-amino}-acetic acid] | 100 |
| C#Cc1nc(C(=O)NCC(=O)O)c(O)c2c(C)nsc12 [Example 39, [(7-Ethynyl-4-hydroxy-3-methyl-isothiazolo[5,4-c]pyridine-5-carbonyl)-amino]-acetic acid] | 100 |
| O=C(O)CNC(=O)c1nc(Br)c2c(-c3ccccc3)nsc2c1O [Example 27, [(4-Bromo-7-hydroxy-3-phenyl-isothiazolo[4,5-c]pyridine-6-carbonyl)-amino]-acetic acid] | 98 |
| Cc1nc(C(=O)NCC(=O)O)c(O)c2c(C)nsc12 [Example 28, [(4-Hydroxy-3,7-dimethyl-isothiazolo[5,4-c]pyridine-5-carbonyl)-amino]-acetic acid] | 100 |
| C[C@@H](NC(=O)c1ncc2snc(-c3ccc(Cl)cc3)c2c1O)C(=O)O [Example 18, (R)-2-{[3-(4-Chloro-phenyl)-4-hydroxy-isothiazolo[5,4-c]pyridine-5-carbonyl]-amino}-propionic acid] | 54 |
| COc1ccc(-c2nc(C(=O)NCC(=O)O)c(O)c3c(-c4ccc(Cl)cc4)nsc23)cc1 [Example 13, {[3-(4-Chloro-phenyl)-4-hydroxy-7-(4-methoxy-phenyl)-isothiazolo[5,4-c]pyridine-5-carbonyl]-amino}-acetic acid] | 94.5 |

Source: patent publication US9387200B2, “Isothiazole-pyridine derivatives as modulators of HIF (hypoxia inducible factor) activity” (FibroGen, Inc., priority 2008, dated 2016)
